Patent publication US6670459B2, “Process for the isolation of novel oligospirostanoside” (Zandu Pharmaceutical Works Ltd., priority 2002, dated 2003)
Read-outs that look alike come from different tables or passages of the source. Marks after values point to notes of the source that are not given here.

Tests used:
immunecompromised mice [1] = type: in vivo
Description: (§1) 0 day: sensitization with 0.2 ml of 5×10^9 SRBC/ml i.p.
4th day: challenged with 20 μl of 5×10^9 SRBC/ml into right hind footpad for DTH reaction only.
(§2) SRBC: Sheep red blood cell.
(§3) 5th day: measurement of foot thickness/Haemagglutination antibody titre

immunecompromised mice [2] = type: in vivo; remark: listed apart in the source
Description: as §1, §2, §3

[3] = immunecompromised mice, 0.0006 mg/kg p.o., days 0-4, day 5, n=12
[4] = immunecompromised mice, 0.0125 mg/kg p.o., days 0-4, day 5, n=12
[5] = oral, immunecompromised experimental animals, dose levels 0.0062-0.0125 mg Kg^-1
[6] = immunecompromised mice, 2.5 mg/kg p.o., days 0-4, day 5, n=12
[7] = mice, 250 mg/kg p.o., day 5, n=12

With `C[C@H]1CC[C@@]2(OC1)O[C@H]1C[C@H]3[C@@H]4CC[C@@H]5C[C@@H](O[C@@H]6O[C@H](CO)[C@@H](O[C@@H]7O[C@@H](C)[C@H](O)[C@@H](O)[C@H]7O[C@@H]7O[C@@H](C)[C@H](O)[C@@H](O)[C@H]7O)[C@H](O)[C@H]6O)CC[C@]5(C)[C@H]4CC[C@]3(C)[C@H]1[C@@H]2C` [AR-Iv, 3-0-[α-L-rhamnopyranosyl-(1→2)-α-L-rhamnopyranosyl-(1→4)-0-β-D-glucopyranosyl]-25(S)-5β-spirostan-3β-ol] the “DTH % change compared to control” value (immunecompromised mice [1]; [3]) was 78*** %, the “DTH mean ± S.E.” value (immunecompromised mice [1]; [3]) was 0.80 ± 0.14 and the “DTH % change compared to control” value (immunecompromised mice [1]; [4]) was 102*** %. The “DTH mean ± S.E.” value (immunecompromised mice [1]; [4]) was 0.91 ± 0.42, the “enhanced cell-mediated immune response” value (immunecompromised mice [1]; [5]) was 77.77-102.22% and the “Antibody titre % change compared to control” value (from here on “Antibody titre % change”) (immunecompromised mice [2]; [3]) was 56** %. The “Antibody titre mean ± S.E.” value (immunecompromised mice [2]; [3]) was 5.60 ± 0.33, the “Antibody titre % change” value (immunecompromised mice [2]; [4]) was 78*** % and the “Antibody titre mean ± S.E.” value (immunecompromised mice [2]; [4]) was 6.41 ± 0.16. For the same compound, the potentiated antibody synthesis (immunecompromised mice [2]; [5]) was 55.55-69.44%.

For `c1ccc([C@H]2CN3CCSC3=N2)cc1` [LEV, Levamisole, reference compound], the “DTH % change compared to control” value (immunecompromised mice [1]; [6]) was 140*** %, the “DTH mean ± S.E.” value (immunecompromised mice [1]; [6]) was 1.08 ± 0.14 and the “Antibody titre % change” value (immunecompromised mice [2]; [6]) was 89*** %. For the same compound, the “Antibody titre mean ± S.E.” value (immunecompromised mice [2]; [6]) was 6.80 ± 0.30.

Cyclodextrin [reference compound] was tested, and the “DTH % change compared to control” value (immunecompromised mice [1]; [7]) was 23* %, the “DTH mean ± S.E.” value (immunecompromised mice [1]; [7]) was 0.45 ± 0.24 and the “Antibody titre % change” value (immunecompromised mice [2]; [7]) was 45* %. For the same compound, the “Antibody titre mean ± S.E.” value (immunecompromised mice [2]; [7]) was 3.60 ± 0.33.
